Consider 24 compounds from ChEMBL document CHEMBL3991601, “The target landscape of clinical kinase drugs” (Science, 2017).

As usually defined, the Kd is the free concentration of one partner at which half of the binding sites on the other are occupied at equilibrium, for simple one-to-one binding.

The source made the active and inactive calls.

In test [1] the target is Serine/threonine-protein kinase ATR (Homo sapiens, UniProt Q13535).
The target in test [2] is Serine/threonine-protein kinase 24 (Homo sapiens, UniProt Q9Y6E0).
Serine/threonine-protein kinase 24, sequence (Q9Y6E0 whole entry): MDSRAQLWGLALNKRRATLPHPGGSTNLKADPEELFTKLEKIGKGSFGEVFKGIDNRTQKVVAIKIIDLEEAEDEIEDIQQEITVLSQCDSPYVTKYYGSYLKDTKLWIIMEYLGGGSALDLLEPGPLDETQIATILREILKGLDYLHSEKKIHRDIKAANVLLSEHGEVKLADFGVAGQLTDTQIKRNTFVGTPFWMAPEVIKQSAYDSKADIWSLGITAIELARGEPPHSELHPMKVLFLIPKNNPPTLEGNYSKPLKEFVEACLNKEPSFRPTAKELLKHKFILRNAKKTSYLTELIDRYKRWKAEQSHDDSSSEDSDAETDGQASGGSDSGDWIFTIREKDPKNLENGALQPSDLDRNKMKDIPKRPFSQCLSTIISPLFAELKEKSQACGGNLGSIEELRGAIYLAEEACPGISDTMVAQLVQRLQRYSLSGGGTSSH
The target in test [3] is Protein kinase C theta type (Homo sapiens, UniProt Q04759).
Protein kinase C theta type, sequence (Q04759 whole entry): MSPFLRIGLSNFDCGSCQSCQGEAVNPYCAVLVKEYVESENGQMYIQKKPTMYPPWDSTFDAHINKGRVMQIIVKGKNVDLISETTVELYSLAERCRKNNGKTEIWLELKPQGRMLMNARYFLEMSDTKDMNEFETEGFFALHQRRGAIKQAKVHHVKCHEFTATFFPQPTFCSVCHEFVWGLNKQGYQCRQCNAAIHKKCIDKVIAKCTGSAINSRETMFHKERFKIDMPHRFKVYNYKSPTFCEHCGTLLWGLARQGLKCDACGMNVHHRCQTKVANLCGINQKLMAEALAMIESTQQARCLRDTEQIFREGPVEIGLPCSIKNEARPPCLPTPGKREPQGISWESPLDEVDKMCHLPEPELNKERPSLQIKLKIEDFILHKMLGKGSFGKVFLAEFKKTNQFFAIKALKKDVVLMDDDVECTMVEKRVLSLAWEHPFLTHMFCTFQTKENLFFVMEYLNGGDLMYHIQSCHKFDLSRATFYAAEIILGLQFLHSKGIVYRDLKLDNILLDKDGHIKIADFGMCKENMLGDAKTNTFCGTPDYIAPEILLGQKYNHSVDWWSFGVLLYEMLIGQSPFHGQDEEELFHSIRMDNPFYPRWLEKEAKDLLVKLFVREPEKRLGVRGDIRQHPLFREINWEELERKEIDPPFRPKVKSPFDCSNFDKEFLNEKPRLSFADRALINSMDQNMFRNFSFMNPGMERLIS
The next test deals with T1, Ephrin type-A receptor 1 (Homo sapiens, UniProt P21709).
T1 sequence (P21709 whole entry): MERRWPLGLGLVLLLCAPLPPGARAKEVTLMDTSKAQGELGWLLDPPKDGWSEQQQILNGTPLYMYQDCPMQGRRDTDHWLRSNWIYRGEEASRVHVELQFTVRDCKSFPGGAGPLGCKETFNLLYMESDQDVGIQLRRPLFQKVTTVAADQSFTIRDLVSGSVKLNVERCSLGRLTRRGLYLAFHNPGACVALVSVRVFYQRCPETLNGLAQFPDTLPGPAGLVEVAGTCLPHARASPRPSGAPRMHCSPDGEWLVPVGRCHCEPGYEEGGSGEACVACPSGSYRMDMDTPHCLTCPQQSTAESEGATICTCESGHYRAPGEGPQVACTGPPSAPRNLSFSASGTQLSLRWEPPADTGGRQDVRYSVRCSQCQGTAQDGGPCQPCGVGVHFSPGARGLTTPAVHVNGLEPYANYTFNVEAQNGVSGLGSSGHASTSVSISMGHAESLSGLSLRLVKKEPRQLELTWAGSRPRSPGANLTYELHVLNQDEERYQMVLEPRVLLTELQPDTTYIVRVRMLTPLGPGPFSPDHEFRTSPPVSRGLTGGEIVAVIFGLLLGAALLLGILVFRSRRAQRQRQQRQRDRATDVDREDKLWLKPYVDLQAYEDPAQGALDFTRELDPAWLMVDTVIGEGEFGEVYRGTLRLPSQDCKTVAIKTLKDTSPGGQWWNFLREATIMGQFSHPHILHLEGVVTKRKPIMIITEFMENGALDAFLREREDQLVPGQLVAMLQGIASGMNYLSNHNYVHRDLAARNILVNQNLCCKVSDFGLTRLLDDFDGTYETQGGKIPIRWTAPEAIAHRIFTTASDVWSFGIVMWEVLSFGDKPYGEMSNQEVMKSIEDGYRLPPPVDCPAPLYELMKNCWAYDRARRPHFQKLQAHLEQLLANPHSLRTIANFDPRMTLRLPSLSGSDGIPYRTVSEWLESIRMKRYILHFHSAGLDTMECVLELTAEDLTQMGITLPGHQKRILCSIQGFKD

The target of test [4] is T2, Isoleucine--tRNA ligase, mitochondrial (Homo sapiens, UniProt Q9NSE4).
T2 sequence (Q9NSE4 whole entry): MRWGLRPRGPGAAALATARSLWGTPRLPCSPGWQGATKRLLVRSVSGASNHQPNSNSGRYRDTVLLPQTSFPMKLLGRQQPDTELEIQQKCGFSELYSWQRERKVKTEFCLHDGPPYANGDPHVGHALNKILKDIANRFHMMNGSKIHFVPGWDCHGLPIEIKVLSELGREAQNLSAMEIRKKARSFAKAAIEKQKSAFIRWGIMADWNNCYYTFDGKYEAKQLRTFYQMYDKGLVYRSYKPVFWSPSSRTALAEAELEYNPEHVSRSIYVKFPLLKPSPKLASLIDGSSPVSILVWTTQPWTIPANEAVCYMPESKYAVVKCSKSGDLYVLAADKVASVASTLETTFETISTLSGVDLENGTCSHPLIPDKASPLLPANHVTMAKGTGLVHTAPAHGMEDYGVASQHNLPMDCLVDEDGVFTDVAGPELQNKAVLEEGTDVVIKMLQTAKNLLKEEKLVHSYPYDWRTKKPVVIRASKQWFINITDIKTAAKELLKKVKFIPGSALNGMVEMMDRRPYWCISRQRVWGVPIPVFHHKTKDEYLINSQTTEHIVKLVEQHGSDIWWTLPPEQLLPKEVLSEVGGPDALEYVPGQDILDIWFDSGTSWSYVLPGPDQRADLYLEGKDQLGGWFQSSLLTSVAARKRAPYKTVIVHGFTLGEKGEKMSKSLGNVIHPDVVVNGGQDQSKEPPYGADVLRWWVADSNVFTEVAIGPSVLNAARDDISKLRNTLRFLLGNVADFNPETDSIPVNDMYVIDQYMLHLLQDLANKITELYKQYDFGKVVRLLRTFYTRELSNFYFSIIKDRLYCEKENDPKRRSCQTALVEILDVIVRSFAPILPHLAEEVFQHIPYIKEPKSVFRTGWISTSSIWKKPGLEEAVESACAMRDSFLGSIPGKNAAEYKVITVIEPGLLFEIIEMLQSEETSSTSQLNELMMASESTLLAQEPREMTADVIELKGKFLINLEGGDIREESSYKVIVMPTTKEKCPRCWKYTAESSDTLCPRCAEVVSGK

Test [5] deals with Cyclin-dependent kinase 17 (Homo sapiens, UniProt Q00537).
Cyclin-dependent kinase 17, sequence (Q00537 whole entry): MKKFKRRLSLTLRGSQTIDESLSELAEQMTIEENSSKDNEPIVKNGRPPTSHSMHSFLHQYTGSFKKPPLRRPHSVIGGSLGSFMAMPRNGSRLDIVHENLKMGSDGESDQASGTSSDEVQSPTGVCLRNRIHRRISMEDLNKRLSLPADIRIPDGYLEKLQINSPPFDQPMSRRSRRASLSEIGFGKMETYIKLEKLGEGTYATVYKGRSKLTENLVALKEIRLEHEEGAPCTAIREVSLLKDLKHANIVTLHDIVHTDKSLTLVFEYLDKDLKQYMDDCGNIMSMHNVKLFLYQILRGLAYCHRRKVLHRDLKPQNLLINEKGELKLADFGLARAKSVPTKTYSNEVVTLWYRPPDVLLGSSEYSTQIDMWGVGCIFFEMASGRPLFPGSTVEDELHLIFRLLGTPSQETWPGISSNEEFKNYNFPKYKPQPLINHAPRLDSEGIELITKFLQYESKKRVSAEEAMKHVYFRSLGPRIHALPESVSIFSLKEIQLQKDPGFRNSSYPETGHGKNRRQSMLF
In test [6] the target is Serine/threonine-protein kinase Nek7 (Homo sapiens, UniProt Q8TDX7).
Serine/threonine-protein kinase Nek7, sequence (Q8TDX7 whole entry): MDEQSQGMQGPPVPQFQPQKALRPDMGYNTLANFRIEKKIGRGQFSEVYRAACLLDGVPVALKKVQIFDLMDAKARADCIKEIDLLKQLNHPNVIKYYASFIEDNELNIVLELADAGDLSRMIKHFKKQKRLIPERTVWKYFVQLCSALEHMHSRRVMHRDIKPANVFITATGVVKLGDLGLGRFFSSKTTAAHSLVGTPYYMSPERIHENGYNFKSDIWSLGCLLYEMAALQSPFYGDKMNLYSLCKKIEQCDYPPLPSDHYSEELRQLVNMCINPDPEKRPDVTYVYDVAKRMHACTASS
Also: in the data inactive means no Kd found up to 30 µM.

Serine/threonine-protein kinase ATR, sequence (Q13535 whole entry): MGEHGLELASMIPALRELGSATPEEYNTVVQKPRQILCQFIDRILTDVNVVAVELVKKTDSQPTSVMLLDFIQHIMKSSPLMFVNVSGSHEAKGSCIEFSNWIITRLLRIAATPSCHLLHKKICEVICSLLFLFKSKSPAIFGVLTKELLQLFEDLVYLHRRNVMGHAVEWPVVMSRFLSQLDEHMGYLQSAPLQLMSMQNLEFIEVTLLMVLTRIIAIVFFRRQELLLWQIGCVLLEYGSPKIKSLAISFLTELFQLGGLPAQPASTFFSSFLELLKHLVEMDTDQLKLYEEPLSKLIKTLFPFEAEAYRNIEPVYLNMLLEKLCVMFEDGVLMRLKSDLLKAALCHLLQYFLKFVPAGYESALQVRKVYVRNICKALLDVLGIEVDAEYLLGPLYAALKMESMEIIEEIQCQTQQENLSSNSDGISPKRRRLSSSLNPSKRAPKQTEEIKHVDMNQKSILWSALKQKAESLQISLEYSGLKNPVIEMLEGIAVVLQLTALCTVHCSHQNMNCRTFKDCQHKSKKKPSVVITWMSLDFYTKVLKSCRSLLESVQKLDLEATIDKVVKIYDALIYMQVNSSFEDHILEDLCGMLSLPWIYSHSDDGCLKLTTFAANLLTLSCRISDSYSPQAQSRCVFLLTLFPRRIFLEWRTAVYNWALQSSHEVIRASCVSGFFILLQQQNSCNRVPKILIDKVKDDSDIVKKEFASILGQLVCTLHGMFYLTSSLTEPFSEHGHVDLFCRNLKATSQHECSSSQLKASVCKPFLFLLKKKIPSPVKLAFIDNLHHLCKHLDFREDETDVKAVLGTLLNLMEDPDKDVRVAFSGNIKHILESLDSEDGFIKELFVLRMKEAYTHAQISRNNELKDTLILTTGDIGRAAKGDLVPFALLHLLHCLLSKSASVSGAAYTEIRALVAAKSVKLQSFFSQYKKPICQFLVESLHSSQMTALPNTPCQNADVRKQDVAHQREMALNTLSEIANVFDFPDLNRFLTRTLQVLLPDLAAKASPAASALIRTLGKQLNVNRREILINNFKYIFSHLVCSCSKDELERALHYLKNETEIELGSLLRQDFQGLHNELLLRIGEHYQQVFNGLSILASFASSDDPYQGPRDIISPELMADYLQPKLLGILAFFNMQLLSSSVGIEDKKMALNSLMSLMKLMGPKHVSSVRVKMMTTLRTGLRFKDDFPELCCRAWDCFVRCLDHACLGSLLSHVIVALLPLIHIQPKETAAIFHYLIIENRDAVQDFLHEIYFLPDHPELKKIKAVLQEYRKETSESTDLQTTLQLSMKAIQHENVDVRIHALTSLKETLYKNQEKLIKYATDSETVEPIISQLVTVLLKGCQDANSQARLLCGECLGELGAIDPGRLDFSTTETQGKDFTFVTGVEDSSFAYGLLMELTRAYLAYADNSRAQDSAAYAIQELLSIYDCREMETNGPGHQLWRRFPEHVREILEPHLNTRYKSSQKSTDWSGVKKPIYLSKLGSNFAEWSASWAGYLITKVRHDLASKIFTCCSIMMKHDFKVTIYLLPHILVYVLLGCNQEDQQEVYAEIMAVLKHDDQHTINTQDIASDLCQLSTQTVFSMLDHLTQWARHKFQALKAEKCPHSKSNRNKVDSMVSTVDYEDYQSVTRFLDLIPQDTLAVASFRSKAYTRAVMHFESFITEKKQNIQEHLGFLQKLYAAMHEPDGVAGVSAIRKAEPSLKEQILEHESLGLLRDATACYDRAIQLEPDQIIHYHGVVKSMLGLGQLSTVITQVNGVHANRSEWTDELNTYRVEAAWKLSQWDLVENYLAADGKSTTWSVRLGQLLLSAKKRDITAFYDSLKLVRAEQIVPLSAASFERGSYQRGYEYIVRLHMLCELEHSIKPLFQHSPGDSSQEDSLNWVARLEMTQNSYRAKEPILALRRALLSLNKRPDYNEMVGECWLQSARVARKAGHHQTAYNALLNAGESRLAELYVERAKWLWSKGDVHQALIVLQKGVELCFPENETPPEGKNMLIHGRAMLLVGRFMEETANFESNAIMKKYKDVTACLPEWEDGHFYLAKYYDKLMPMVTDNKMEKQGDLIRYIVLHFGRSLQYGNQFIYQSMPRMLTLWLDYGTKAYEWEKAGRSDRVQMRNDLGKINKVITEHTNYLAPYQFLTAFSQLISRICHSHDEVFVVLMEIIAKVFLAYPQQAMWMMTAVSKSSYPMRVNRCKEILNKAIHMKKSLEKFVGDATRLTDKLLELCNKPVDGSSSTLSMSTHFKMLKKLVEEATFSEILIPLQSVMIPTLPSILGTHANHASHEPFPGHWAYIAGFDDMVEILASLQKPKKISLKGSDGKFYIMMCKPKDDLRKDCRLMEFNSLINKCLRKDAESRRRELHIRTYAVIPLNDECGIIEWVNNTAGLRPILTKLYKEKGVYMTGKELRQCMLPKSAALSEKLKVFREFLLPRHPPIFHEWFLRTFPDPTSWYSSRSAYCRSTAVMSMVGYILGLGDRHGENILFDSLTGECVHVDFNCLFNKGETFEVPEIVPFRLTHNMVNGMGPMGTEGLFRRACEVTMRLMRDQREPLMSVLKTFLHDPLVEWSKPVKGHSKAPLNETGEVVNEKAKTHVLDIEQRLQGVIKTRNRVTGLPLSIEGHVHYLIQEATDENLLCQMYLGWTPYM

`O=c1[nH]c([C@@H]2CCCN2)nc2c1oc1ccc(Cl)cc12`: the Kd (in test [1]; in test [2]; in test [3]; at Ephrin type-A receptor 1) was > 30 µM (inactive) throughout.

Take `C[C@@]1(C(=O)Nc2ccc(F)nc2)CCCN1c1nc(Nc2cc(C3CC3)n[nH]2)c2cccn2n1` [BMS-754807]: the Kd in test [4] and in test [1] was > 30 µM (inactive) throughout.

As for `CNC(=O)c1ccc(Nc2ncc(C(F)(F)F)c(NCc3nccnc3N(C)S(C)(=O)=O)n2)cc1` [DEFACTINIB], the Kd (in test [1]; in test [2]; in test [3]; in test [5]; at Ephrin type-A receptor 1) was > 30 µM (inactive) each time.

Regarding `CC[C@@](C)(Nc1ccnc(-c2c[nH]c3ncccc23)n1)C(=O)NCC(F)(F)F` [DECERNOTINIB], the Kd is > 30 µM (inactive) in test [2], 0.139 µM (active) in test [5] and > 30 µM (inactive) on Ephrin type-A receptor 1.

In the case of `CN(c1ncccc1CNc1nc(Nc2ccc3c(c2)CC(=O)N3)ncc1C(F)(F)F)S(C)(=O)=O` [PF-00562271], the figures for the Kd (in test [4]; in test [5]; on Ephrin type-A receptor 1) were > 30 µM (inactive), 0.089 µM (active) and > 30 µM (inactive), respectively.

On to `CN1CCN(c2nc(C3=C(c4c[nH]c5ccccc45)C(=O)NC3=O)c3ccccc3n2)CC1` [SOTRASTAURIN], for which the Kd in test [4] is > 30 µM (inactive); in test [1], > 30 µM (inactive); in test [2], > 30 µM (inactive); in test [3], 0.013 µM (active); in test [5] it was > 30 µM (inactive); at Ephrin type-A receptor 1, > 30 µM (inactive).

`N#CCNC(=O)c1ccc(-c2ccnc(Nc3ccc(N4CCOCC4)cc3)n2)cc1` [MOMELOTINIB]: the Kd in test [4] was > 30 µM (inactive); in test [6], > 30 µM (inactive); in test [5] it was 1.38 µM.

Turning to `C=CC(=O)Nc1cc(Nc2nccc(-c3cn(C)c4ccccc34)n2)c(OC)cc1N(C)CCN(C)C` [OSIMERTINIB], the Kd (in test [4]; in test [6]; in test [3]; in test [5]; on Ephrin type-A receptor 1) was > 30 µM (inactive) throughout.

With `C=CCN(/C=C1/C(=O)O[C@H](COC)[C@@]2(C)C1=C(O)C(=O)C1=C2[C@H](OC(C)=O)C[C@]2(C)C(=O)CC[C@@H]12)CC=C` [SONOLISIB], the Kd (in test [6]; in test [2]; in test [5]; at Ephrin type-A receptor 1) was > 30 µM (inactive) each time.

As for `CCN(CCCOc1ccc2c(Nc3cc(CC(=O)Nc4cccc(F)c4)n[nH]3)ncnc2c1)CCOP(=O)(O)O` [BARASERTIB], the Kd (in test [4]; in test [1]; in test [2]; in test [5]; at Ephrin type-A receptor 1) was > 30 µM (inactive) each time.

As to `COCCN1CCN(Cc2ccc(-c3n[nH]c4c3C(=O)c3c(NC(=O)NN5CCOCC5)cccc3-4)cc2)CC1` [RGB-286638], the Kd (in test [4]; in test [1]; in test [3]; at Ephrin type-A receptor 1) was > 30 µM (inactive) in each case.

On to `COc1cccc(Nc2ncnn3ccc(CN4CC[C@@H](N)[C@H](O)C4)c23)c1` [BMS-690514], for which the Kd (in test [2]; in test [3]; on Ephrin type-A receptor 1) was > 30 µM (inactive) each time.

Turning to `FC(F)(F)c1ccc(CNc2ccc(Cc3c[nH]c4ncc(Cl)cc34)cn2)cn1` [PEXIDARTINIB], the Kd in test [2] is > 30 µM (inactive); in test [3], 0.006 µM; in test [5], > 30 µM (inactive); at Ephrin type-A receptor 1, > 30 µM (inactive).

Turning to `CC(C)(O)CC(=O)NCCn1ccc2ncnc(Nc3ccc(Oc4cccc(C(F)(F)F)c4)c(Cl)c3)c21` [TAK-285], the Kd (in test [6]; in test [2]; in test [3]; in test [5]; at Ephrin type-A receptor 1) was > 30 µM (inactive) in each case.

`Cc1cc(C(=O)Nc2cc(Oc3ccc4nc(NC(=O)C5CC5)cn4n3)ccc2C)n(C)n1` [TAK-593]: the Kd (in test [2]; in test [3]; at Ephrin type-A receptor 1) was > 30 µM (inactive) in each case.

As to `C=CCn1c(=O)c2cnc(Nc3ccc(N4CCN(C)CC4)cc3)nc2n1-c1cccc(C(C)(C)O)n1` [ADAVOSERTIB], the Kd (in test [4]; in test [1]; in test [5]; at Ephrin type-A receptor 1) was > 30 µM (inactive) in each case.

For the compound `CCc1nc(C(N)=O)c(Nc2ccc(N3CCC(N4CCN(C)CC4)CC3)c(OC)c2)nc1NC1CCOCC1` [GILTERITINIB], the Kd was 0.23 µM in test [2], > 30 µM (inactive) in test [5] and > 30 µM (inactive) at Ephrin type-A receptor 1.

As for `COc1cc2ncnc3c2cc1OCCCCCN(C)Cc1ccc(Br)cc1N3` [JNJ-26483327], the Kd (in test [4]; in test [3]; in test [5]; at Ephrin type-A receptor 1) was > 30 µM (inactive) in each case.

Consider `C=CC(=O)Nc1cccc(Nc2nc(Nc3ccc(N4CCN(C(C)=O)CC4)cc3OC)ncc2C(F)(F)F)c1` [ROCILETINIB], for which the Kd in test [4], in test [1] and in test [5] was > 30 µM (inactive) each time.

Regarding `COc1cc2ncnc(Nc3ccc(F)c(Cl)c3)c2cc1NC(=O)/C=C/CN1CCCCC1` [DACOMITINIB ANHYDROUS], the Kd in test [6], in test [3] and in test [5] was > 30 µM (inactive) each time.

In the case of `Cc1c(NC(=O)OC[C@@H]2COCCN2)cn2ncnc(Nc3ccc4c(cnn4Cc4cccc(F)c4)c3)c12` [AC-480], the Kd (in test [2]; in test [3]; on Ephrin type-A receptor 1) was > 30 µM (inactive) in each case.

`COc1cc2nccc(Oc3ccc(NC(=O)C4(C(=O)Nc5ccc(F)cc5)CC4)cc3)c2cc1OC` [CABOZANTINIB]: the Kd in test [4], in test [6], in test [2], in test [3] and in test [5] was > 30 µM (inactive) throughout.

On to `CNC(=O)c1cc(COc2nnc(Nc3ccc(Cl)cc3)c3ccoc23)ccn1` [TELATINIB], for which the Kd (in test [1]; in test [2]; in test [3]; in test [5]; at Ephrin type-A receptor 1) was > 30 µM (inactive) in each case.

As for `CC1(COc2ccc3c(c2)ncn3-c2ccc3cccc(N4CCC(N)CC4)c3n2)COC1` [CRENOLANIB], the Kd is > 30 µM (inactive) in test [4]; > 30 µM (inactive) in test [6]; 0.057 µM (active) in test [2]; > 30 µM (inactive) in test [5]; > 30 µM (inactive) at Ephrin type-A receptor 1.
